Values of other authors in patent US20060246505A1, “Modulation of the synthesis of insulin” (priority 2003, published 2006).

Test system: signalling pathways that trigger transcription
Conditions: glucose-triggered resynthesis of insulin in beta cells; prior-art statement

C[S+]([O-])c1ccc(-c2nc(-c3ccncc3)c(-c3ccc(F)cc3)[nH]2)cc1 (stereo not shown) [SB 203580]
inhibition of the signalling pathways that trigger transcription (resynthesis of insulin): can be inhibited
